SMILES strings stand for the structures. Where “and” joins values, the source holds several entries; their conditions need not be identical. Equal values may be shown once.

One compound from patent publication US5344780A, “Method for determining indole compounds associated with boar taint in pork as well as a sample container to be used in the method” (priority 1990, dated 1994) can be followed below.

The series is described as follows: HPLC-analysis of extracted lard with heating (Example 1; also reproducibility test). More on the design: species or system pig. As to the method: The present Example illustrates the extraction on the entire sample of lard and the determination of indole and skatole by HPLC.
A sample of lard of 5 g is taken subcutaneously from the occipital region of a carcass. The sample is placed in a container and heated at 80° C. for 10 minutes in microwave oven in order to melt the fat. An amount of 5 ml of methanol is then added to the sample which is shaken, whereupon the sample is extracted for 10 minutes. Subsequently, the sample is filtered to remove the fat and connective tissue and analyzed by HPLC under the following conditions:
HPLC-apparatus: Merck HPLC with fluorescence detector and autosampler,
Eluant: water:methanol (20:80) (volume:volume)
Fluorescence detector: excitation wavelength=285 nm, emission wavelength=340 nm
Column: Lichrocart 250-4, Lichrospher 100 RP18, 5 micron, reverse phase
Injection volume: 20 microliter,
Detection limit: 5 ppb (0,005 ppm) in solution […]
The samples were such analyzed 10 times.

Turning to `Cc1c[nH]c2ccccc12` [Skatole, skatole], the “ppb skatole at HPLC-analysis, overall average” value reads like this: (Table 2, 4 samples, n = 40) 48.47 ppb; (Table 3, 3 samples, n = 30) 71.38 ppb. For the same compound, the “ppb skatole at HPLC-analysis, highest” value was 50.00 ppb and 50.93 ppb and 52.80 ppb and 51.87 ppb (Table 2, samples 1-4); 77.33 ppb and 74.67 ppb and 72.00 ppb (Table 3, samples 1-3). Besides, the “ppb skatole at HPLC-analysis, lowest” value (Table 2, samples 1-4) is 44.13 ppb and 43.87 ppb and 49.07 ppb; the “ppb skatole at HPLC-analysis, lowest” value (Table 3, samples 1-3) is 69.33 ppb and 66.67 ppb. The “ppb skatole at HPLC-analysis, average per sample” value was 47.61 ppb and 47.63 ppb and 50.67 ppb and 47.96 ppb (Table 2, samples 1-4, 10 analyses each); 73.60 ppb and 70.13 ppb and 70.40 ppb (Table 3, samples 1-3, 10 analyses each). Moreover, the “ppb skatole at HPLC-analysis” value was 72.00 ppb and 69.33 ppb and 74.67 ppb and 77.33 ppb (Table 3, sample 1, analyses 1-10); 74.67 ppb and 69.33 ppb and 66.67 ppb and 72.00 ppb (Table 3, sample 2, analyses 1-10); 72.00 ppb and 69.33 ppb and 66.67 ppb (Table 3, sample 3, analyses 1-10).
